# Where “and” joins values, the source holds several entries; their conditions need not be identical. Identical values can stand only once.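 These data come from cells grown in 96-well plates and exposed to compound for 48 hours at five concentrations. At the GI50, growth is halved. At the TGI there is no net growth.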
# Key:
# Test in all cases: NCI anticancer screen, dose series, 48 h
# [1] = tested on: ACHN renal
# [2] = tested on: TK-10 renal
# [3] = tested on: SK-MEL-2 melanoma
# [4] = tested on: HL-60(TB) leukemia
# [5] = tested on: UACC-257 melanoma
# [6] = tested on: SF-539 CNS
# [7] = tested on: LOX IMVI melanoma
# [8] = tested on: EKVX NSCLC
# [9] = tested on: HS 578T breast
# [10] = tested on: PC-3 prostate
Compound,TGI [1],TGI [2],TGI [3],TGI [4] [µM],TGI [5],TGI [6],TGI [7],TGI [8],TGI [9],GI50 [8] [µM],GI50 [1] [µM],GI50 [2] [µM],GI50 [9] [µM],GI50 [4] [µM],GI50 [10] [µM],TGI [10] [µM],GI50 [5] [µM],GI50 [6] [µM],GI50 [7] [µM],GI50 [3] [µM]
CCc1ccccc1NC(=O)CCc1nc(=S)[nH][nH]1,> 100 µM,> 100 µM,> 100 µM,> 100,> 100 µM,> 100 µM,> 100 µM,–,–,–,–,–,–,–,–,–,–,–,–,–
COc1ccccc1NC(=O)CC(=O)n1nc(C)c(N=Nc2ccccc2F)c1C,> 100 µM,> 100 µM,> 100 µM,> 100,> 100 µM,> 64 µM,> 100 µM,> 100 µM,–,–,–,–,–,–,–,–,–,–,–,–
O=C(CC(=O)Nc1ccc(Cl)cc1)NNCC(=O)Nc1nc(-c2ccccc2)cs1,–,> 100 µM,–,> 100,–,> 100 µM,> 100 µM,> 100 µM,–,–,–,–,–,–,–,–,–,–,–,–
CCNC(=O)C(O)C1(O)CCC2[C@@H]3CCC4=CC(=O)C=C[C@]4(C)C3[C@@H](O)C[C@@]21C (some centres not stated),> 100 µM,> 100 µM,> 100 µM,> 79.4,> 100 µM,> 100 µM,> 100 µM,> 100 µM,–,–,–,–,–,–,–,–,–,–,–,–
Cc1ccccc1C(C#N)/C(=N/NC(=O)c1cc2ccccc2cc1O)C(=O)Nc1cccc(Cl)c1 (configuration not stated),> 100 µM,> 100 µM,76 µM,26.8,76.1 µM,69.9 µM,–,> 100 µM,–,–,–,–,–,–,–,–,–,–,–,–
COC(=O)c1nc(-c2ccc(Cl)c(Cl)c2)nc2ccccc12,> 100 µM,> 83.5 µM,> 100 µM,> 100,> 100 µM,> 61.3 µM,> 100 µM,> 100 µM,–,–,–,–,–,–,–,–,–,–,–,–
COc1ccc2[nH]c3c(cnn4cnnc34)c2c1,> 100 µM,> 100 µM,> 100 µM,> 100,> 100 µM,> 100 µM,> 100 µM,> 100 µM,–,–,–,–,–,–,–,–,–,–,–,–
C/C(=N\NC(=S)N(C)C)c1ncc[nH]1,31.4 µM,> 100 µM,70.9 µM,5.87,7.52 µM,8.15 µM,> 100 µM,> 100 µM,–,–,–,–,–,–,–,–,–,–,–,–
CC(=O)/C=C1/c2ccccc2N(C(C)=O)C1O (configuration not stated),> 100 µM,–,> 100 µM,> 100,> 100 µM,> 100 µM,–,> 100 µM,–,–,–,–,–,–,–,–,–,–,–,–
CCCCCCC(C)CC(CCCCCC)NCCOC(=O)c1ccc([N+](=O)[O-])cc1 (configuration not stated),30.5 µM and 28.1 µM,24.5 µM and 23.4 µM,30.7 µM and 28.6 µM,–,21.4 µM and 16.8 µM,30.1 µM and 27 µM,24.7 µM and 19.5 µM,27.2 µM and 21.4 µM,41.5 µM and 41.1 µM,–,–,–,–,–,–,–,–,–,–,–
CCCOc1ccc(/C=C\c2cc(OC)c(OC)c(OC)c2)cc1,> 100 µM,> 100 µM,–,> 100,> 100 µM,> 100 µM,> 100 µM,> 100 µM,–,–,–,–,–,–,–,–,–,–,–,–
Cc1cc2c(cn1)C(=O)OCC2,> 100 µM,> 100 µM,–,> 100,> 100 µM,> 100 µM,> 100 µM,> 100 µM,–,–,–,–,–,–,–,–,–,–,–,–
CCCOc1ccc(/C=C/c2cc(OC)c(OC)c(OC)c2)cc1,> 100 µM,> 100 µM,> 100 µM,1.16,39.3 µM,0.754 µM,> 50.5 µM,> 100 µM,–,–,–,–,–,–,–,–,–,–,–,–
CCOC(=O)/C(C#N)=C(O)/C(=C/c1ccccc1Cl)NC(=O)c1ccccc1,> 100 µM,> 100 µM,–,> 100,> 100 µM,> 100 µM,–,> 100 µM,–,–,–,–,–,–,–,–,–,–,–,–
O=C(CNC(=O)c1cccc2ccccc12)Nc1ccccc1Oc1cccc(O)c1,> 25 µM,> 25 µM,–,10.6,> 25 µM,13.8 µM,> 25 µM,> 25 µM,> 25 µM,8.82,17.4,> 25,5.79,1.31,7.13,> 25,> 25,4.06,15,–
C[C@]12CC[C@H]3[C@@H](CCC4=CC(=O)CC[C@@H]43)[C@@H]1CC[C@@H]2OC1(O)C(=O)c2ccccc2C1=O,79.4 µM,> 100 µM,> 100 µM,–,> 100 µM,> 100 µM,> 100 µM,2.79 µM,> 100 µM,–,–,–,–,–,–,> 100,–,–,–,–
CN1C(c2ccccc2)CC(=Nc2ccccc2)CC1c1ccccc1 (configuration not stated),–,36.9 µM,–,> 100,24.1 µM,–,16.8 µM,56.5 µM,–,–,–,–,–,–,–,–,–,–,–,–
COc1cc(C)cc2c1OC(c1ccccc1)CC2=O (configuration not stated),> 100 µM,> 100 µM,> 100 µM,> 100,> 100 µM,> 100 µM,> 100 µM,> 100 µM,–,> 100,> 100,> 100,–,> 100,> 100,> 100,> 100,> 100,> 100,> 100
CCCCCCn1c(-c2ccc(C(=O)O/N=C(\N)c3ccc(OC)cc3)cc2)nc(-c2ccccc2)c1-c1ccccc1,1.23 µM,3.31 µM,9.46 µM,–,> 100 µM,3.02 µM,0.341 µM,3.38 µM,3.1 µM,1.7,0.354,1.72,1.2,–,1.67,4.16,4.07,1.5,0.186,2.93
Cc1cccc(C(C)(C)C)c1NC(=O)CC1C(=O)Nc2ccccc2S1=O (configuration not stated),> 100 µM,> 100 µM,> 100 µM,43.7,> 100 µM,> 100 µM,> 100 µM,–,–,–,–,–,–,–,–,–,–,–,–,–
N=C(c1ccccc1)N1CCCCC1,–,> 100 µM,> 100 µM,> 100,> 100 µM,> 100 µM,> 100 µM,> 100 µM,–,–,–,–,–,–,–,–,–,–,–,–
[N-]=[N+]=Nc1ncc(-c2ccc(C(F)(F)F)cc2)c(NC2CCCCCC2)n1,> 10 µM,> 10 µM,> 10 µM,> 10,> 10 µM,> 10 µM,> 10 µM,–,–,–,> 10,> 10,–,> 10,> 10,> 10,> 10,> 10,> 10,> 10
CC1C(=O)N=C2C(=CN(Cc3ccccc3)c3ccccc32)C(=O)N1C (configuration not stated),> 100 µM,> 100 µM,> 100 µM,–,> 100 µM,> 100 µM,–,–,–,–,–,–,–,–,–,> 100,–,–,–,–
O=c1c2cc(Br)ccc2oc2ccc(Br)cc12,> 100 µM,> 100 µM,> 100 µM,> 100,> 100 µM,> 100 µM,–,–,–,–,–,–,–,–,–,> 100,–,–,–,–
